Tested on: narkotisierten Katze
Experiment: Blood-pressure-lowering and positive inotropic effect in the anaesthetised cat
Type: in vivo, Katzen
Settings: mean of 2 cats; for diastol. Blutdruckänderung in mmHg: anaesthetised cats (Pentobarbital-Natrium), 0,3 mg/kg i.v., Aorta abdominalis; for Zunahme von dp/dt in %: dp/dt max from left ventricular pressure
Procedure: 1. Bestimmung der blutdrucksenkenden und ositiv inotropen Wirkung an der narkotisierten Katze:
Die Untersuchungen wurden an Katzen durchgeführt, die mit Pentobarbital-Natrium (40 mg/kg i.p. + 8 mg/kg/Stunde) narkotisiert waren. Die Tiere atmeten spontan. Der arterielle Blutdruck wurde in der Aorta abdominalis mit einem StathamDruckwandler (P 23 Dc) gemessen. Für die Erfassung der positiv inotropen Wirkung wurde mit einem Kathetertipmanometer (Millar PC-350 A) der Druck in der linken Herzkammer gemessen. Daraus wurde der Kontraktilitätsparameter dp/dt max mittels eines Analogdifferenzierers gewonnen. Die zu untersuchende Substanz wurde in eine Vena femoralis injiziert. Als Lösungsmittel diente Polydiol 200. Die Substanz wurde an 2 Katzen geprüft, Dosis 0,3 mg/kg i.v..

[1] = anaesthetised cats, 0,3 mg/kg i.v.

| Structure (SMILES) | diastol. Blutdruckänderung in mmHg | Wirkungsdauer (Halbwertszeit) [1] | Zunahme von dp/dt in % [1] | Zunahme der Herzfrequenz [1] |
| --- | --- | --- | --- | --- |
| CCN1C(=O)C(C)(C)c2cc3[nH]c(-c4ocnc4C)nc3cc21 [D, 5-Äthyl-7,7-dimethyl-2-(4-methyl-oxazol-5-yl)-6,7-dihydro-3H,5H-pyrrolo[2,3-f]benzimidazol-B-on] | -31 mmHg | 7 Minuten | +50% | – |
| CCN1C(=O)C(C)(C)c2cc3[nH]c(-c4ccco4)nc3cc21 [B, 5-Äthyl-7,7-dimethyl-2-(2-furyl)-6,7-dihydro-3H,5H-pyrrolo[2,3-f]benzimidazol-6-on] | -31 mmHg | 26 Minuten | +49% | – |
| CCN1C(=O)C(C)(C)c2cc3[nH]c(-c4ccncc4)nc3cc21 [A, 5-Äthyl-7,7-dimethyl-2-(4-pyridyl)-6,7-dihyro-3H,5H-pyrrolo[2,3-f]benzimidazol-6-on] | -33 mmHg | >80 Minuten | +55% | – |
| CCN1C(=O)C(C)(C)c2cc3[nH]c(-c4ccc(S(C)(=O)=O)cc4)nc3cc21 [C, 5-Äthyl-7,7-dimethyl-2-(4-methylsulfonyl-phenyl)-6,7-dihydro-3H,5H-pyrrolo[2,3-f]benzimidazol-6-on] | -16 mmHg | >60 Minuten | +91% | +12% |
